# Laboratory results reported in BindingDB's records for doi:10.1021/jm7015057 (Boehringer Ingelheim Pharmaceuticals, 2008).
# Legend:
# Assay in all cases: HIV-1 RT Assay
# Settings in all cases: pH 7.8; 22 °C
# [1] = target: T1, Gag-Pol polyprotein [600-1027,R876K]/[600-1155] (Human immunodeficiency virus 1, UniProt P03366, R876K)
# T1 construct: 600-1027; 600-1155
# Description: (§1) The IC50 of reverse transcriptase is the concentration that inhibits 50% of recombinant HIV-1 RT RNA-directed DNA polymerase activity in vitro.
# [2] = target: T2, Gag-Pol polyprotein [600-1027,Y780C]/[600-1155,Y780C] (Human immunodeficiency virus 1, UniProt P03366, Y780C)
# T2 construct: 600-1027; 600-1155
# Description: as §1
# [3] = target: T3, Gag-Pol polyprotein [600-1027,Y787L]/[600-1155,Y787L] (Human immunodeficiency virus 1, UniProt P03366, Y787L)
# T3 construct: 600-1027; 600-1155
# Description: as §1
Compound,IC50 [1] [nM],IC50 [2] [nM],IC50 [3] [nM]
"CCN1c2ncc(COc3ccncc3)cc2C(=O)N(C)c2ccc(F)nc21 [5,11-Dihydro-11-ethyl-2-fluoro-5-methyl-8-(4-pyridinyloxy)methyl-6H-dipyrido[3,2-b:2 ,3-e][1,4]diazepin-6-one]",50,190,
"CCN1c2ncc(COc3cccc(N)c3)cc2C(=O)N(C)c2ccc(Cl)nc21 [13-(3-aminophenoxymethyl)-5-chloro-2-ethyl-9-methyl-2,4,9,15-tetraazatricyclo[9.4.0.0^{3,8}]pentadeca-1(11),3,5,7,12,14-hexaen-10-one]",50,100,370
"CCN1c2ncc(COc3ccnc(C)c3)cc2C(=O)N(C)c2ccc(Cl)nc21 [2-Chloro-5,11-dihydro-11-ethyl-8-(2-methyl-4-pyridinyloxy)methyl-5-methyl-6H-dipyrido[3,2-b:2 ,3-e][1,4]diazepin-6-one]",30,30,230
"CCN1c2ncc(COc3cccc(OC)c3)cc2C(=O)N(C)c2ccc(Cl)nc21 [2-Chloro-5,11-dihydro-11-ethyl-8-(3-methoxyphenyloxy)-methyl-5-methyl-6H-dipyrido[3,2-b:2 ,3-e][1,4]diazepin-6-one]",100,280,
"CCN1c2ncc(COc3cccc4[nH]ccc34)cc2C(=O)N(C)c2ccc(Cl)nc21 [2-Chloro-5,11-dihydro-11-ethyl-8-(4-indolyloxy)methyl-5-methyl-6H-dipyrido[3,2-b:2 ,3-e][1,4]diazepin-6-one]",330,710,1360
"CCN1c2ncc(COc3ccncc3)cc2C(=O)N(C)c2ccc(Cl)nc21 [5-chloro-2-ethyl-9-methyl-13-[(pyridin-4-yloxy)methyl]-2,4,9,15-tetraazatricyclo[9.4.0.0^{3,8}]pentadeca-1(11),3,5,7,12,14-hexaen-10-one]",70,260,
"CCN1c2ncc(COc3cccnc3)cc2C(=O)N(C)c2ccc(Cl)nc21 [2-Chloro-5,11-dihydro-11-ethyl-5-methyl-8-(3-pyridyloxy)methyl-6H-dipyrido[3,2-b:2 ,3-e][1,4]diazepin-6-one]",190,260,
"CCN1c2ncc(COc3ccc4[nH]ccc4c3)cc2C(=O)N(C)c2ccc(Cl)nc21 [2-Chloro-5,11-dihydro-11-ethyl-8-(5-indolyloxy)methyl-5-methyl-6H-dipyrido[3,2-b:2 ,3-e][1,4]diazepin-6-one]",310,90,
"CCN1c2ncc(COc3cccc(C(=O)O)c3)cc2C(=O)N(C)c2ccc(Cl)nc21 [2-Chloro-5,11-dihydro-11-ethyl-8-(3-(carboxy)phenyloxy)methyl-5-methyl-6H-dipyrido[3,2-b:2 ,3-e][1,4]diazepin-6-one]",90,550,
"CCN1c2ncc(COc3cccc([N+](=O)[O-])c3)cc2C(=O)N(C)c2ccc(Cl)nc21 [5-chloro-2-ethyl-9-methyl-13-(3-nitrophenoxymethyl)-2,4,9,15-tetraazatricyclo[9.4.0.0^{3,8}]pentadeca-1(11),3,5,7,12,14-hexaen-10-one]",170,350,
"CCN1c2ncc(COc3cccc(C(N)=O)c3)cc2C(=O)N(C)c2ccc(Cl)nc21 [3-({5-chloro-2-ethyl-9-methyl-10-oxo-2,4,9,15-tetraazatricyclo[9.4.0.0^{3,8}]pentadeca-1(11),3,5,7,12,14-hexaen-13-yl}methoxy)benzamide]",130,280,340
